Results reported in patent publication US20180179210A1, “Inhibitors of the TEC Kinase Enzyme Family” (Pharmascience Inc., priority 2015, published 2018).

Assays:
[1] = system: TMD-8 human activated B cell diffuse large B cell lymphoma cells; assay: TMD-8 survival assay; assay type: cell-based; settings: TMD8, TMD-8 cells, 72 h treatment, Cell Titer-Glo
Protocol: BTK inhibitors affect the survival of B-cell lymphomas. TMD-8 human activated B cell diffuse large B cell lymphoma cells were seeded in 96-well plates at a density of 20,000 cells/well in HyClone RPMI supplemented with 10% FBS (Fisher)/1% Penicillin/Streptomycin (HyClone) and incubated at 37° C., 5% CO2. Cells were treated in triplicate with 1,000 nM or 100 nM curves of compounds for 72 h. Cell survival was measured by Cell Titer-Glo Luminescent Assay (Promega). EC50 values (50% proliferation in the presence of compound as compared to vehicle treated controls) were calculated from dose response compound curves using GraphPad Prism Software.

[2] = biological target: T1, human BTK kinase (hBTK) (Homo sapiens, UniProt Q06187); assay: BTK kinase inhibition assay (Kinase Profiler radiometric protein kinase assay, Eurofins); assay type: biochemical; settings: radiometric [γ-33P-ATP] assay, 40 minutes at room temperature, 250 μM substrate
T1 construct: purchased Eurofins Pharma Discovery Services UK Limited (contract assay, Kinase Profiler)
Protocol: In vitro potency of selected compound was defined against human BTK kinase (hBTK) using Kinase Profiler radiometric protein kinase assays performed at Eurofins Pharma Discovery Services UK Limited.
hBTK kinase is diluted in buffer and all compounds were prepared to 50× final assay concentration in 100% DMSO. This working stock of the compound was added to the assay well as the first component in the reaction, followed by the remaining components as detailed in the assay protocol listed above. The reaction was initiated by the addition of the MgATP mix. The kinase reaction was performed at room temperature for 40 minutes in presence of 250 μM substrate, 10 mM MgAcetate, [γ-33P-ATP] (specific activity approx. 500 cpm/pmol, concentration as required) and variable test article concentrations. The ATP concentrations in the assays were with 15 μM of the apparent. The reaction was stopped by the addition of 3% phosphoric acid solution. 10 μL of the reaction is then spotted onto a P30 filtermat and washed three times for 5 minutes in 75 mM phosphoric acid and once in methanol prior to drying and scintillation counting. In addition positive control wells contain all components of the reaction, except the compound of interest; however, DMSO (at a final concentration of 2%) were included in these wells to control for solvent effects as well as blank wells contain all components of the reaction, with a reference inhibitor replacing the compound of interest. This abolishes kinase activity and establishes the base-line (0% kinase activity remaining).

[3] = system: Splenocytes; assay: Splenic cell proliferation assay (anti-IgM stimulated); assay type: cell-based; settings: Splenocyte; CD1 mouse splenocytes, 1 h pre-treatment, 2.5 ug/ml anti-IgM F(ab')2 for 72 h, Cell Titer-Glo; read-out: EC50 (inhibition of splenic cell proliferation)
Protocol: Proliferation of splenocytes in response to anti-IgM can be blocked by inhibition of Btk.
Splenocytes were obtained from 6 week old male CD1 mice (Charles River Laboratories Inc.). Mouse spleens were manually disrupted in PBS and filtered using a 70 um cell strainer followed by ammonium chloride red blood cell lysis. Cells were washed, resuspended in Splenocyte Medium (HyClone RPMI supplemented with 10% heat-inactivated FBS, 0.5× non-essential amino acids, 10 mM HEPES, 50 uM beta mercaptoethanol) and incubated at 37° C., 5% CO2 for 2 h to remove adherent cells. Suspension cells were seeded in 96 well plates at 50,000 cells per well and incubated at 37° C., 5% CO2 for 1 h. Splenocytes were pre-treated in triplicate with 10,000 nM curves of Formula 1 compounds for 1 h, followed by stimulation of cell proliferation with 2.5 ug/ml anti-IgM F(ab′)2 (Jackson ImmunoResearch) for 72 h. Cell proliferation was measured by Cell Titer-Glo Luminescent Assay (Promega). EC50 values (50% proliferation in the presence of compound as compared to vehicle treated controls) were calculated from dose response compound curves using GraphPad Prism Software EC50 values are reported in Table 3: […]

T1 sequence (Q06187 whole entry): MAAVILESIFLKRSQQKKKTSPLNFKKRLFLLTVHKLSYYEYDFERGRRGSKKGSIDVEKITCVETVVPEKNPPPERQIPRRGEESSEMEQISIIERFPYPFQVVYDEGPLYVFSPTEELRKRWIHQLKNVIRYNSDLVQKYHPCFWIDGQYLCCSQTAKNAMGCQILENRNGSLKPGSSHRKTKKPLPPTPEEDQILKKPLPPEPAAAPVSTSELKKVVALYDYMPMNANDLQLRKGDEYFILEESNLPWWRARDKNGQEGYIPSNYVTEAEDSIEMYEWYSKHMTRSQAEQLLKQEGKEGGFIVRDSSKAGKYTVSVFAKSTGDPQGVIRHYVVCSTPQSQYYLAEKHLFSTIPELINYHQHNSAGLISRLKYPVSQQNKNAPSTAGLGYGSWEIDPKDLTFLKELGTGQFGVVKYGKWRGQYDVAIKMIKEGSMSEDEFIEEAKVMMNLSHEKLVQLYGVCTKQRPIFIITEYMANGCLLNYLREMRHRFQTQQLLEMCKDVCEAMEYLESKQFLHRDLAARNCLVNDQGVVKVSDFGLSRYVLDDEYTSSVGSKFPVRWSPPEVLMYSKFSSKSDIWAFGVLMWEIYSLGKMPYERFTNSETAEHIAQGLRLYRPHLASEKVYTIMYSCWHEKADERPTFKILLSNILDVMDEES

Row | SMILES | IC50 [2] [nM] | EC50 [1] [nM] | EC50 [3] [nM]
1 | Cc1ncc(COc2cc(F)cc(Oc3ccc(-c4nn([C@@H]5CCCN(C(=O)/C=C/CN(C)C)C5)c5ncnc(N)c45)cc3)c2)cn1 [Compound 16] | 7 | 12.1 | 4.1
2 | C=C(F)C(=O)N1CC[C@@H](n2nc(-c3ccc(Oc4cc(F)cc(OCc5cnc(C)nc5)c4)cc3)c3c(N)ncnc32)C1 [Compound 18] | 14 | 14.4 | 5.8
3 | C=CC(=O)N1CC[C@@H](n2nc(-c3ccc(Oc4cc(F)cc(OCc5cnc(C)nc5)c4)cc3)c3c(N)ncnc32)C1 [Compound 22] | 6 | 13.4 | 2.7
4 | C=CC(=O)N1CC(Cn2nc(-c3ccc(Oc4cc(F)cc(OCc5cnc(C)nc5)c4)cc3)c3c(N)ncnc32)C1 [Compound 23] | 9 | 13.9 | 4.9
5 | C=C(F)C(=O)N1CCC[C@@H](n2nc(-c3ccc(Oc4cc(F)cc(OCc5cnc(C)nc5)c4)cc3)c3c(N)ncnc32)C1 [Compound 20] | 6 | 8.6 | 2
6 | CC#CC(=O)N(C)[C@H]1C[C@@H](n2nc(-c3ccc(Oc4cc(F)cc(OCc5cnc(C)nc5)c4)cc3)c3c(N)ncnc32)C1 [Compound 32] | 8 | 8.5 | 1.5
7 | CC#CC(=O)N1CCC(n2nc(-c3ccc(Oc4cc(F)cc(OCc5cnc(C)nc5)c4)cc3)c3c(N)ncnc32)CC1 [Compound 26] | 24 | 18.1 | 4.6
8 | Cc1ncc(COc2cc(F)cc(Oc3ccc(-c4nn(C[C@H]5CCCN5C#N)c5ncnc(N)c45)cc3)c2)cn1 [Compound 1] | 76 | 34.7 | 12.2
9 | CC#CC(=O)N[C@H]1CC[C@@H](n2nc(-c3ccc(Oc4cc(F)cc(OCc5cnc(C)nc5)c4)cc3)c3c(N)ncnc32)CC1 [Compound 30] | 9 | 5.1 | 1
10 | Cc1ncc(COc2cc(F)cc(Oc3ccc(-c4nn(C[C@H]5CCCN5C(=O)C5=CCCC5)c5ncnc(N)c45)cc3)c2)cn1 [Compound 2] | 119 | > 100 | > 100
11 | C=CS(=O)(=O)N1CCC[C@@H](n2nc(-c3ccc(Oc4cc(F)cc(OCc5cnc(C)nc5)c4)cc3)c3c(N)ncnc32)C1 [Compound 21] | 13 | 64.5 | 32.9
12 | Cc1ncc(COc2cc(F)cc(Oc3ccc(-c4nn([C@@H]5CCCN(C#N)C5)c5ncnc(N)c45)cc3)c2)cn1 [Compound 8] | 11 | 13.5 | 4.6
13 | C=C(F)C(=O)N[C@H]1C[C@@H](n2nc(-c3ccc(Oc4cc(F)cc(OCc5cnc(C)nc5)c4)cc3)c3c(N)ncnc32)C1 [Compound 35] |  |  | 1
14 | C=CC(=O)N1CC2(CC(n3nc(-c4ccc(Oc5cc(F)cc(OCc6cnc(C)nc6)c5)cc4)c4c(N)ncnc43)C2)C1 [Compound 34] |  |  | 1.5
15 | C#CC(=O)N1CCC[C@@H]1Cn1nc(-c2ccc(Oc3cc(F)cc(OCc4cnc(C)nc4)c3)cc2)c2c(N)ncnc21 [Compound 13] | 35 | 79.3 | 48.7
16 | C=CC(=O)N1CCC[C@@H]1Cn1nc(-c2ccc(Oc3cc(F)cc(OCc4cnc(C)nc4)c3)cc2)c2c(N)ncnc21 [Compound 14] | 25 | 13.8 | 2.5
17 | C=C(C)C(=O)N1CCC[C@@H](n2nc(-c3ccc(Oc4cc(F)cc(OCc5cnc(C)nc5)c4)cc3)c3c(N)ncnc32)C1 [Compound 7] | 16 | > 100 | 48.7
18 | C/C=C/C(=O)N1CCC[C@@H]1Cn1nc(-c2ccc(Oc3cc(F)cc(OCc4cnc(C)nc4)c3)cc2)c2c(N)ncnc21 [Compound 3] | 129 | 45.3 | 12.8
19 | Cc1ncc(COc2cc(F)cc(Oc3ccc(-c4nn(C5CCN(C#N)CC5)c5ncnc(N)c45)cc3)c2)cn1 [Compound 33] |  | > 100 | 47.3

More lines, in order of falling IC50 [2], values ahead:

Row | IC50 [2] [nM] | SMILES | EC50 [1] [nM] | EC50 [3] [nM]
20 | 126 | CC#CC(=O)N1CCC[C@@H]1Cn1nc(-c2ccc(Oc3cc(F)cc(OCc4cnc(C)nc4)c3)cc2)c2c(N)ncnc21 [Compound 5] | 48.8 | 7.8
21 | 125 | C=C(C)C(=O)N1CCC[C@@H]1Cn1nc(-c2ccc(Oc3cc(F)cc(OCc4cnc(C)nc4)c3)cc2)c2c(N)ncnc21 [Compound 4] | > 100 | > 100
22 | 55 | C=C(F)C(=O)N1CCC[C@@H]1Cn1nc(-c2ccc(Oc3cc(F)cc(OCc4cnc(C)nc4)c3)cc2)c2c(N)ncnc21 [Compound 6] | 36.1 | 11.5
23 | 53 | Cc1ncc(COc2cc(F)cc(Oc3ccc(-c4nn(C[C@H]5CCCN5C(=O)C5=CCC5)c5ncnc(N)c45)cc3)c2)cn1 [Compound 15] | 56.1 | 8.7
24 | 40 | Cc1ncc(COc2cc(F)cc(Oc3ccc(-c4nn(C[C@H]5CCCN5C(=O)/C=C/CN(C)C)c5ncnc(N)c45)cc3)c2)cn1 [Compound 9] | 18.7 | 6.4
25 | 26 | CC#CC(=O)N1CC(Cn2nc(-c3ccc(Oc4cc(F)cc(OCc5cnc(C)nc5)c4)cc3)c3c(N)ncnc32)C1 [Compound 24] | 20.6 | 10.8
26 | 19 | CC#CC(=O)N1CC[C@@H](n2nc(-c3ccc(Oc4cc(F)cc(OCc5cnc(C)nc5)c4)cc3)c3c(N)ncnc32)C1 [Compound 17] | 14.5 | 6.9
27 | 17 | C=CC(=O)N1CCC(n2nc(-c3ccc(Oc4cc(F)cc(OCc5cnc(C)nc5)c4)cc3)c3c(N)ncnc32)CC1 [Compound 25] | 19.8 | 4.3
28 | 13 | CC#CC(=O)N[C@H]1C[C@@H](n2nc(-c3ccc(Oc4cc(F)cc(OCc5cnc(C)nc5)c4)cc3)c3c(N)ncnc32)C1 [Compound 28] | 8.4 | 1.1
29 | 10 | CC#CC(=O)N1CCC[C@@H](n2nc(-c3ccc(Oc4cc(F)cc(OCc5cnc(C)nc5)c4)cc3)c3c(N)ncnc32)C1 [Compound 11] | 13.1 | 1.5
30 | 10 | C=CC(=O)N(C)[C@H]1C[C@@H](n2nc(-c3ccc(Oc4cc(F)cc(OCc5cnc(C)nc5)c4)cc3)c3c(N)ncnc32)C1 [Compound 31] | 8.9 | 1.4
31 | 8 | C#CC(=O)N1CCC[C@@H](n2nc(-c3ccc(Oc4cc(F)cc(OCc5cnc(C)nc5)c4)cc3)c3c(N)ncnc32)C1 [Compound 10] | 75.5 | 9.8
32 | 8 | C=CC(=O)N[C@H]1CC[C@@H](n2nc(-c3ccc(Oc4cc(F)cc(OCc5cnc(C)nc5)c4)cc3)c3c(N)ncnc32)CC1 [Compound 29] | 6.6 | 1
33 | 7 | C=CS(=O)(=O)N1CC[C@@H](n2nc(-c3ccc(Oc4cc(F)cc(OCc5cnc(C)nc5)c4)cc3)c3c(N)ncnc32)C1 [Compound 19] | 53.3 | 13.4
34 | 6 | C=CC(=O)N1CCC[C@@H](n2nc(-c3ccc(Oc4cc(F)cc(OCc5cnc(C)nc5)c4)cc3)c3c(N)ncnc32)C1 [Compound 12] | 16.5 | 3.1
